In patent US20040162467A1, “Non-invasive transudate extraction” (priority 2001, published 2004):
Where “and” joins values, the source holds several entries; their conditions need not be identical. Equal values may be shown once.

Legend:
[1] = Serum, transdermal and saliva samples from human subjects before, during and after exercise; settings: for Saliva: 30-min saliva lag
Procedure: (§1) Sodium lauryl sulfate (40%) and either a commercial ultrasound conductive gel (Aquasonic, Parker Lab., NJ 07004, USA) or a 10% ethanol gel (the two gels were alternated in use) are employed. These gels are designated SLS-UG and SLS-EG respectively herein. Collected SLS-UG and SLS-EG are assayed as for blood. Saliva was divided into two samples. The first sample is stored at −20° C. and assayed as for blood. The second sample is assayed at the time of experimentation using the apparatus and immunosensors described above.
(§2) Student t tests, ANOVA or Wilcoxon test for paired samples are made as appropriate. Statistical significance is taken at P≦0.05 level. For analysis across the exercise stress, data is grouped into pre, during and post exercise values as actual sample times relative to the exercise for transdermal and blood obtained values. For pre, during and post exercise grouping of saliva samples, a 20-min lag was allowed relative to blood and transdermal values in sheep and a 30-min lag in human subjects.
Ten human volunteers (males aged 19-23, body weights 85-103 kg) were seated at 09:30 h. During the experiment, they were held at a room temperature of 20-22° C. An initial 1 min burst of ultrasound, as for the sheep (above), was made on the volar surface of the forearm, following application of SLS-EG mix. Ten minutes later, transdermal (electrosonophoresis) collection began from this site on this forearm, simultaneous to a venepuncture blood collection being made from the other. A saliva collection was then made, followed by a second, third and fourth saliva collection 20, 30 and 40 min after the blood sample. These measurements were repeated three times over 3 h (i.e. a total of three blood and transdermal samples and 12 saliva samples). In between each sampling series, subjects were allowed to walk around, eat lightly and drink water. Following this collection, the five volunteers exercised at moderate intensities, for 40 min (heart rates maintained in the range of 130-160 bpm) on a rowing machine, stopping briefly at 10, 20 and 30 min to give blood, transdermal and saliva samples. The subjects gave another set of samples at 40 min upon completion of rowing, then warmed down lightly with stretching exercises for a further 10 min and gave a further saliva sample at the end of this time. Two more saliva samples were collected at 60 and 70 min after exercise started. At the end of this time, sampling was repeated as above, prior to exercise, for a further 3 h. The entire procedure was repeated twice a week for 3 weeks (a total of six times). The distance rowed (m) represented the total work rate during the exercise.

[2] = Serum, transdermal and saliva samples from sheep before, during and after exercise; settings: for Saliva: 20-min saliva lag; for Exudate: transdermal
Procedure: as §1, §2
In the remaining 10 sheep, experimentation took place on three separate days, each 3 days apart. On days of experimentation, animals were penned as above and the jugular vein of the animal was catheterised. Animals were left to rest for 50 min and then a single ultrasound application applied for 1 min as above. […] A series of electrosonophoresis collections were made concurrently with blood collection from the jugular vein, every 5 min for a further 1 h. Saliva samples were collected on every second blood sample (i.e. every 10 min). At completion of this time, a human shepherd, intermittently for 30 min, then ran the animals around a paddock. During this 30 min, each animal was briefly restrained manually and sampled on all three parameters every 10 min (i.e. three samples repeated three times). At the end of this period, animals were repenned and rested for 10 min, and a further saliva collection was made. Following this saliva collection for a further 1-h period, collection as above, prior to exercise, was repeated. In this manner for each animal, in each session, 27 blood and transdermal samples and 16 saliva samples were collected.

[3] = Patients recovering in intensive care: blood versus ultrasound (US) levels; assay type: in vivo, human; settings: one value per sample
[4] = Concentrations in transdermal exudate collected by different formats from sheep, versus serum
Procedure: as §1
Ten of these animals were used to develop the transdermal exudate collection technique. These 10 animals were penned as above, and a catheter inserted into the jugular vein using known techniques in the art. A mixture of sodium lauryl sulfate and either SLS-UG or SLS-EG was positioned onto the shaved area on the back of each animal. […] At the end of the hour, the remaining mix on the back was collected. The entire procedure was repeated three times. This mix was subject to assay (see below) for hormones and glucose content.
On the following day, one of the two gel mixes were rubbed on and, after 10 min, ultrasound (20 kHz, 10 W/cm^2, pulsed 5 s on/5 s off using an ITO Physiotherapy and rehabilitation unit, Tokyo 176-8605, Japan) applied for 1 min directly onto the mix. Ten minutes later, the mix was again collected and measured. This was then repeated with 2 min of the ultrasound application, and on a following day, the entire procedure repeated using the alternative gel mix on the shaved patch on the animal. Times greater than 2 min were not attempted due to potential risk of skin damage. Blood samples were collected at the time of ultrasound application and again at the time when the gel mix was also collected. The entire ultrasound procedure was then repeated on subsequent days with the addition of an application of a 9V electric field either side of the ultrasound head (in contact with skin).
On a separate day, in a further repeat of the above procedure; the collecting head (50) was positioned onto the ultrasound device. The ultrasound device was modified to ensure good coupling for use with the collecting head and delivery of needed parameters to the skin. The output of the device was reset to achieve the same energy and pulse delivery to the skin's surface as when the collecting head was not present, and the ultrasound device had been placed directly in contact with the gels (as described above). Three fluid flow rates into the collection chamber of the head were compared: 150, 300 and 600 μl/min. The effluent fluid was then assayed. On a final day, this was then repeated with the immunosensors positioned in the exit line from the chamber, with immunosensor measurement of the hormones made as has been described above.

[5] = Salivary cortisol during familiarization period; assay type: in vivo; settings: sheep
Procedure: Twenty sheep (Romney cross ewes, 36-44 kg live weights) were farmed together as a flock for 14 days prior to experimentation. On each of these days, they were rounded up, penned, a patch on their backs (approximately 5 cm in diameter) shaved and SLS-UG or SLS-EG applied.
Two minutes later the electrosonophoresis device was placed briefly on this patch (not turned on). At the end of 1 h of penning saliva was collected using a plastic suction bulb positioned manually into the mouth of the sheep. In this manner the sheep were familiarized to the experimental procedure.

[6] = Flow rate effect on analyte extraction (electrosonophoresis exudate versus serum); assay type: in vivo; settings: for Sonified off membrane*: membrane sonicated in water bath
Procedure: Using the methods above for transudate and serum extraction, an experiment was conducted to determine the effect of flow rates through the head on testosterone recovery. Table 5 sets out the results of the experiment.
In a series of experiments (15 measures per flow rate) flow rates were compared for collection of testosterone in exudate from electrosonophoresis compared to that concurrently measured in serum of the subjects.

[7] = Trial of FIG. 1 device: blood levels versus ultrasound-extracted transudate levels
Source text: The device of shown in FIG. 1 has been trialed with four individuals. The device was assembled as set out above and was linked to a testosterone and ethanol detectors comprising a HPLC system and Electrochemical detector and a mass spectroscopy system. […] In turn, each subject placed their forearm on the device. The ultrasound generator was set to produce continuous pulsing, collimating ultrasonic energy at 1 MHz and 0.5 W/cm^2. The surface of delivery at the test site was approximately 5 cm^2. Collections were made from the skin surface of the forearm over a period of one minute. Blood samples were drawn simultaneously and analysed for comparison to the ultrasound samples.

[8] = sheep, SLS + 10% E + US 1 min + 9 V
[9] = sheep, SLS + 10% E + US 1 min + 9 V + Collection Head

C[C@]12CCC(=O)C=C1CC[C@@H]1[C@@H]2[C@@H](O)C[C@@]2(C)[C@H]1CC[C@]2(O)C(=O)CO [Cortisol, cortisol]
Serum ([1]; 0 min Exercise): 29.5 ± 9.2 ng/L | Saliva ([1]; 0 min Exercise): 2.79 ± 1.13 ng/L | Serum ([1]; 10 min Exercise): 7.08 ± 11.5 ng/L | Saliva ([1]; 10 min Exercise): 8.01 ± 2.86 ng/L | Serum ([1]; 20 min Exercise): 91.3 ± 19.7 ng/L | Saliva ([1]; 20 min Exercise): 8.75 ± 4.31 ng/L | Serum ([1]; 30 min Exercise): 115.7 ± 15.8 ng/L | Saliva ([1]; 30 min Exercise): 10.04 ± 3.11 ng/L | Serum ([1]; 40 min Exercise): 109.4 ± 13.1 ng/L | Saliva ([1]; 40 min Exercise): 9.19 ± 3.76 ng/L | Serum ([1]; Postexercise): 49.6 ± 11.3 ng/L | Saliva ([1]; Postexercise): 4.02 ± 1.95 ng/L | Serum ([1]; Preexercise): 22.7 ± 8.1 ng/L | Saliva ([1]; Preexercise): 2.25 ± 1.04 ng/L | Serum ([2]; 10 min Exercise): 19.6 ± 5.1 ng/L | Saliva ([2]; 10 min Exercise): 1.51 ± 0.97 ng/L | Exudate ([2]; 10 min Exercise): 2.91 ± 0.83 ng/L | Serum ([2]; 20 min Exercise): 27.8 ± 4.6 ng/L | Saliva ([2]; 20 min Exercise): 2.35 ± 2.19 ng/L | Exudate ([2]; 20 min Exercise): 3.92 ± 1.01 ng/L | Serum ([2]; 30 min Exercise): 39.3 ± 7.4 ng/L | Saliva ([2]; 30 min Exercise): 2.44 ± 1.76 ng/L | Serum ([2]; Postexercise): 18.3 ± 4.9 ng/L | Saliva ([2]; Postexercise): 1.34 ± 1.81 ng/L | Exudate ([2]; Postexercise): 2.71 ± 0.55 ng/L | Serum ([2]; Preexercise): 11.9 ± 4.7 ng/L | Saliva ([2]; Preexercise): 1.07 ± 1.03 ng/L | Exudate ([2]; Preexercise): 1.71 ± 0.85 ng/L | Cortisol US [3]: 32.1 ng/mL and 37.4 ng/mL and 30.5 ng/mL and 39.7 ng/mL and 29.2 ng/mL and 36.4 ng/mL and 31.3 ng/mL and 45.9 ng/mL | Recovery as % of serum levels ([4]; in vivo): 5% | Salivary value ([5]; Day 14): 1.1 ± 0.9 ng/mL | Salivary value ([5]; first day): 6.4 ± 1.2 ng/mL

C[C@]12CC[C@H]3[C@@H](CCC4=CC(=O)CC[C@@]43C)[C@@H]1CC[C@@H]2O [Testosterone, testosterone]
Collected in exudate ([6]; flow rate 50 μl/min): 0.05 to 0.09 ng/mL | Serum level at same time ([6]; flow rate 50 μl/min): 1.9 to 2.5 ng/mL | Sonified off membrane* ([6]; flow rate 50 μl/min): 0.1 to 0.2 ng/mL | Collected in exudate ([6]; flow rate 100 μl/min): 0.15 to 0.20 ng/mL | Serum level at same time ([6]; flow rate 100 μl/min): 2.0 to 2.4 ng/mL | Sonified off membrane* ([6]; flow rate 100 μl/min): 0.05 to 0.07 ng/mL | Collected in exudate ([6]; flow rate 150 μl/min): 0.2 to 0.3 ng/mL | Serum level at same time ([6]; flow rate 150 μl/min): 1.9 to 2.6 ng/mL | Sonified off membrane* ([6]; flow rate 150 μl/min): 0.01 to 0.02 ng/mL | Collected in exudate ([6]; flow rate 200 μl/min): 0.21 to 0.30 ng/mL | Serum level at same time ([6]; flow rate 200 μl/min): 2.0 to 3.01 ng/mL | Sonified off membrane* ([6]; flow rate 200 μl/min): 0.01 to 0.02 ng/mL | Collected in exudate ([6]; flow rate 300 μl/min): 0.12 to 0.17 ng/mL | Serum level at same time ([6]; flow rate 300 μl/min): 1.9 to 2.8 ng/mL | Sonified off membrane* ([6]; flow rate 300 μl/min): 0.08 to 0.12 ng/mL | Serum ([4]; sheep, SLS + 10% E): 0.9 ± 0.4 ng/mL | Exudate ([4]; sheep, SLS + 10% E + US 1 min): 0.02 ± 0.005 ng/mL | Relative recovery (exudate vs serum) ([4]; sheep, SLS + 10% E + US 1 min): (2%) | Serum ([4]; sheep, SLS + 10% E + US 1 min): 0.9 ± 0.3 ng/mL | Exudate [4, 8]: 0.05 ± 0.02 ng/mL | Relative recovery (exudate vs serum) [4, 8]: (7%) | Serum [4, 8]: 0.7 ± 0.6 ng/mL | Exudate [4, 9]: 0.11 ± 0.06 ng/mL | Relative recovery (exudate vs serum) [4, 9]: (14%) | Serum [4, 9]: 0.8 ± 0.6 ng/mL | Serum ([4]; sheep, SLS + UG): 1.1 ± 0.6 ng/mL | Recovery as % of serum levels ([4]; sheep, gel mix with addition of ultrasound application): 2% | Blood level 1# ([7]; day 1, 30 min following 1 hour training (aerobic) and oral 10% ethanol, one value per subject (1-4)): 3 ng/mL and 7 ng/mL and 9 ng/mL and 4 ng/mL | Ultrasound level 1# ([7]; day 1, 30 min following 1 hour training and oral 10% ethanol, forearm, 1 MHz, 0.5 W/cm^2, 1 min, one value per subject): 2 ng/ml (2×) and 4 ng/ml and 7 ng/ml | Ultrasound level 2* ([7]; repeat on day 3, forearm, 1 MHz, 0.5 W/cm^2, 1 min, one value per subject): 4 ng/ml (2×) and 6 ng/ml and 3 ng/ml | Blood level 2* ([7]; repeat on day 3, one value per subject): 5 ng/mL and 10 ng/mL and 8 ng/mL and 6 ng/mL
